pKi: −log10 of the molar value. Where two headings read alike, the source gives them in different places.
Target: T1, cloned human dopamine D3 receptors (Homo sapiens, UniProt P35462)
T1 construct: expressed in transfected cells; membrane homogenate
Assay: [N-Methyl-3H]Spiroperidol binding to cloned human dopamine D3 receptors (Protocol 1)
In short: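 Membranes from CHO cells stably expressing cloned human D3 receptor were used for [N-methyl-3H]spiroperidol (60-90 Ci/mmol) binding. Assay buffer was 0.05 M Tris HCl pH 7.7 with 120 mM NaCl, 5 mM KCl, 2 mM CaCl2 and 1 mM MgCl2, optionally 0.1% ascorbic acid; total ligand concentration calculated from added CPM.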

[1] = the 18th table, read-out: D3 Ki
[2] = the 16th table, read-out: D3 Ki
[3] = the 14th table, read-out: D3 Ki

T1 sequence (P35462 whole entry): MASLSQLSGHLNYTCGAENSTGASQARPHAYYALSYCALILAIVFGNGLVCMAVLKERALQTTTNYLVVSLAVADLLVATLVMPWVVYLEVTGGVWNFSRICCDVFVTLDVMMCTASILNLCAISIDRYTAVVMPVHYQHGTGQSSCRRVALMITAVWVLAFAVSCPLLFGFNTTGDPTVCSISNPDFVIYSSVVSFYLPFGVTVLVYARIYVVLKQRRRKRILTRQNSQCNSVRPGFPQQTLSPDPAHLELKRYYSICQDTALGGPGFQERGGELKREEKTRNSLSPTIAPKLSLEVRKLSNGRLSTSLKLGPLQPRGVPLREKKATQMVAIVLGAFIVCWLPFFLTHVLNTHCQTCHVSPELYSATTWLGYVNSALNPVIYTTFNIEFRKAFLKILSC

Row | SMILES | pKi (read-out: D3K1) | pKi [3] | also measured
1 | O=C(NCc1sccc1CN1CCN(c2csc3cc(F)ccc23)CC1)c1cc(-c2ccco2)nc2ccccc12 [compound 826319] | – | – | pKi [1]: 6.56
2 | O=C(NCc1sccc1CN1CCN(c2csc3cc(F)ccc23)CC1)c1cc2sccc2s1 [compound 826320] | – | – | pKi [1]: 7.12
3 | Cc1nn(C)c2sc(C(=O)NCc3sccc3CN3CCN(c4csc5cc(F)ccc45)CC3)cc12 [compound 826321] | – | – | pKi [1]: 7.38
4 | O=C(NCc1sccc1CN1CCN(c2csc3cc(F)ccc23)CC1)c1cc2ccccc2[nH]1 [compound 826322] | – | – | pKi [1]: 6.53
5 | COc1ccc2[nH]c(C(=O)NCc3sccc3CN3CCN(c4csc5cc(F)ccc45)CC3)cc2c1 [compound 826323] | – | – | pKi [1]: 7.17
6 | Cn1c(C(=O)NCc2sccc2CN2CCN(c3csc4cc(F)ccc34)CC2)cc2ccccc21 [compound 826324] | – | – | pKi [1]: 6.92
7 | O=C(NCc1sccc1CN1CCN(c2csc3cc(F)ccc23)CC1)c1c[nH]c2ccccc12 [compound 826325] | – | – | pKi [1]: 7.27
8 | O=C(NCc1sccc1CN1CCN(c2csc3cc(F)ccc23)CC1)c1cccc2[nH]ccc12 [compound 826326] | – | – | pKi [1]: 7.15
9 | O=C(NCc1sccc1CN1CCN(c2csc3cc(F)ccc23)CC1)c1ccc2[nH]ccc2c1 [compound 826327] | – | – | pKi [1]: 7.70
10 | O=C(NCc1sccc1CN1CCN(c2csc3cc(F)ccc23)CC1)c1ccc2cc[nH]c2c1 [compound 826328] | – | – | pKi [1]: 7.55
11 | O=C(NCc1sccc1CN1CCN(c2csc3cc(F)ccc23)CC1)c1n[nH]c2ccccc12 [compound 826329] | – | – | pKi [1]: 7.85
12 | CC1=C(C(=O)NCc2sccc2CN2CCN(c3csc4cc(F)ccc34)CC2)Cc2ccccc21 [compound 826330] | – | – | pKi [1]: 7.80
13 | O=C(NCc1sccc1CN1CCN(c2csc3cc(F)ccc23)CC1)c1cc2ccccc2o1 [compound 826331] | – | – | pKi [1]: 7.29
14 | O=C(NC/C=C\CN1CCN(c2csc3cc(C(F)(F)F)ccc23)CC1)c1ccsc1 [compound 826332] | 7.70 | – | –
15 | O=C(NC/C=C\CN1CCN(c2csc3cc(C(F)(F)F)ccc23)CC1)C1CCC1 [compound 826333] | 7.62 | – | –
16 | O=C(NC/C=C\CN1CCN(c2csc3cc(C(F)(F)F)ccc23)CC1)C1CCCC1 [compound 826334] | 7.68 | – | –
17 | O=C(NC/C=C\CN1CCN(c2csc3cc(C(F)(F)F)ccc23)CC1)c1ccccn1 [compound 826335] | 7.38 | – | –
18 | O=C(NC/C=C\CN1CCN(c2csc3cc(C(F)(F)F)ccc23)CC1)c1cccnc1 [compound 826336] | 7.39 | – | –
19 | O=C(NC/C=C\CN1CCN(c2csc3cc(C(F)(F)F)ccc23)CC1)c1ccccc1 [compound 826337] | 7.54 | – | –
20 | O=C(NC/C=C\CN1CCN(c2csc3cc(C(F)(F)F)ccc23)CC1)c1cc(F)cc(F)c1 [compound 826338] | 7.03 | – | –
21 | O=C(NC/C=C\CN1CCN(c2csc3cc(C(F)(F)F)ccc23)CC1)C1CCCCC1 [compound 826339] | 7.62 | – | –
22 | O=C(NC/C=C\CN1CCN(c2csc3cc(C(F)(F)F)ccc23)CC1)c1cccc(Cl)c1 [compound 826340] | 7.14 | – | –
23 | O=C(NC/C=C\CN1CCN(c2csc3cc(C(F)(F)F)ccc23)CC1)c1ccc(F)cc1 [compound 826341] | 7.96 | – | –

Row | SMILES | pKi (read-out: D3K1) | pKi [3] | also measured
24 | O=C(NC/C=C\CN1CCN(c2csc3cc(C(F)(F)F)ccc23)CC1)c1cccc(F)c1 [compound 826342] | 7.33 | – | –
25 | N#Cc1cccc(C(=O)NC/C=C\CN2CCN(c3csc4cc(C(F)(F)F)ccc34)CC2)c1 [compound 826343] | 7.28 | – | –
26 | COc1cccc(C(=O)NC/C=C\CN2CCN(c3csc4cc(C(F)(F)F)ccc34)CC2)c1 [compound 826344] | 7.54 | – | –
27 | O=C(CCC1CCCC1)NC/C=C\CN1CCN(c2csc3cc(C(F)(F)F)ccc23)CC1 [compound 826345] | 7.11 | – | –
28 | O=C(NC/C=C\CN1CCN(c2csc3cc(C(F)(F)F)ccc23)CC1)c1cccc(C(F)(F)F)c1 [compound 826346] | 6.77 | – | –
29 | O=C(COc1ccccc1)NC/C=C\CN1CCN(c2csc3cc(C(F)(F)F)ccc23)CC1 [compound 826347] | 7.17 | – | –
30 | O=C(NC/C=C\CN1CCN(c2csc3cc(C(F)(F)F)ccc23)CC1)c1ccc(OC(F)(F)F)cc1 [compound 826348] | 7.21 | – | –
31 | O=C(COCc1ccccc1)NC/C=C\CN1CCN(c2csc3cc(C(F)(F)F)ccc23)CC1 [compound 826349] | 6.74 | – | –
32 | O=C(NCCCCN1CCCN(c2csc3cc(F)ccc23)CC1)c1ccc2nonc2c1 [compound 826699] | – | – | pKi (Table 2, read-out: D3K1): 8.17; pKi [2]: 8.17
33 | COc1ccc2[nH]c(C(=O)NCCCCCCN3CCN(c4csc5cc(C(F)(F)F)ccc45)CC3)cc2c1 [compound 826738] | 8.21 | 8.21 | –
34 | Cn1c(C(=O)NCCCCCCN2CCN(c3csc4cc(C(F)(F)F)ccc34)CC2)cc2ccccc21 [compound 826739] | 8.68 | 8.68 | –
35 | O=C(NCCCCCCN1CCN(c2csc3cc(C(F)(F)F)ccc23)CC1)c1c[nH]c2ccccc12 [compound 826740] | 7.36 | 7.36 | –
36 | O=C(NCCCCCCN1CCN(c2csc3cc(C(F)(F)F)ccc23)CC1)c1cccc2[nH]ccc12 [compound 826741] | 8.01 | 8.01 | –
37 | O=C(NCCCCCCN1CCN(c2csc3cc(C(F)(F)F)ccc23)CC1)c1ccc2cc[nH]c2c1 [compound 826742] | 8.77 | 8.77 | –
38 | O=C(NCCCCCCN1CCN(c2csc3cc(C(F)(F)F)ccc23)CC1)c1n[nH]c2ccccc12 [compound 826743] | 7.82 | 7.82 | –
39 | O=C(NCCCCCCN1CCN(c2csc3cc(C(F)(F)F)ccc23)CC1)c1cccs1 [compound 826746] | 9.10 | 9.10 | –
40 | O=C(NCCCCCCN1CCN(c2csc3cc(C(F)(F)F)ccc23)CC1)c1cccc(Cl)c1 [compound 826747] | 9.92 | 9.92 | –
41 | COc1cc(OC)cc(C(=O)NCCCCCCN2CCN(c3csc4cc(C(F)(F)F)ccc34)CC2)c1 [compound 826748] | 8.31 | 8.31 | –
42 | O=C(NCCCCCCN1CCN(c2csc3cc(C(F)(F)F)ccc23)CC1)c1ccc(OC(F)(F)F)cc1 [compound 826749] | 8.06 | 8.06 | –
43 | O=C(NCCCCCCN1CCN(c2csc3cc(C(F)(F)F)ccc23)CC1)c1cccc2ccccc12 [compound 826750] | 8.49 | 8.49 | –
44 | O=C(NCCCCCCN1CCN(c2csc3cc(C(F)(F)F)ccc23)CC1)c1ccc2ccccc2c1 [compound 826751] | 8.55 | 8.55 | –
45 | O=C(NCCCCCCN1CCN(c2csc3cc(C(F)(F)F)ccc23)CC1)c1cccc(C(F)(F)F)c1 [compound 826752] | 7.85 | 7.85 | –
46 | Cc1ccccc1C(=O)NCCCCCCN1CCN(c2csc3cc(C(F)(F)F)ccc23)CC1 [compound 826753] | 8.36 | 8.36 | –

Row | SMILES | pKi (read-out: D3K1) | pKi [3] | also measured
47 | O=C(NCCCCCCN1CCN(c2csc3cc(C(F)(F)F)ccc23)CC1)c1cc2ccccc2s1 [compound 826754] | 8.49 | 8.49 | –
48 | O=C(NCCCCN1CCCN(c2csc3cc(F)ccc23)CC1)c1c2ccccc2cc2ccccc12 [compound 826762] | – | – | pKi (Table 2, read-out: D3K1): 7.24; pKi [2]: 7.24
49 | O=C(NCCCCCN1CCN(c2csc3cc(C(F)(F)F)ccc23)CC1)c1cccs1 [compound 826764] | 8.11 | 8.11 | –
50 | O=C(NCCCCCN1CCN(c2csc3cc(C(F)(F)F)ccc23)CC1)c1cccc(Cl)c1 [compound 826765] | 7.64 | 7.64 | –
51 | COc1cc(OC)cc(C(=O)NCCCCCN2CCN(c3csc4cc(C(F)(F)F)ccc34)CC2)c1 [compound 826766] | 7.96 | 7.96 | –
52 | O=C(NCCCCCN1CCN(c2csc3cc(C(F)(F)F)ccc23)CC1)c1ccc(OC(F)(F)F)cc1 [compound 826767] | 7.85 | 7.85 | –
53 | O=C(NCCCCCN1CCN(c2csc3cc(C(F)(F)F)ccc23)CC1)c1cccc2ccccc12 [compound 826768] | 7.64 | 7.64 | –
54 | O=C(NCCCCCN1CCN(c2csc3cc(C(F)(F)F)ccc23)CC1)c1ccc2ccccc2c1 [compound 826769] | 8.15 | 8.15 | –
55 | O=C(NCCCCCN1CCN(c2csc3cc(C(F)(F)F)ccc23)CC1)c1cccc(C(F)(F)F)c1 [compound 826770] | 7.85 | 7.85 | –
56 | Cc1ccccc1C(=O)NCCCCCN1CCN(c2csc3cc(C(F)(F)F)ccc23)CC1 [compound 826771] | 8.17 | 8.17 | –
57 | O=C(NCCCCCN1CCN(c2csc3cc(C(F)(F)F)ccc23)CC1)c1cccc(F)c1 [compound 826772] | 8.11 | 8.11 | –
58 | O=C(NCCCCCN1CCN(c2csc3cc(C(F)(F)F)ccc23)CC1)c1cc2ccccc2s1 [compound 826773] | 7.96 | 7.96 | –
59 | O=C(NCCCCCN1CCN(c2csc3cc(F)ccc23)CC1)c1cccs1 [compound 826774] | – | 8.08 | –
60 | O=C(NCCCCCN1CCN(c2csc3cc(F)ccc23)CC1)c1cccc(Cl)c1 [compound 826775] | – | 8.20 | –
61 | COc1cc(OC)cc(C(=O)NCCCCCN2CCN(c3csc4cc(F)ccc34)CC2)c1 [compound 826776] | – | 8.90 | –
62 | O=C(NCCCCCN1CCN(c2csc3cc(F)ccc23)CC1)c1ccc(OC(F)(F)F)cc1 [compound 826777] | – | 8.34 | –
63 | O=C(NCCCCCN1CCN(c2csc3cc(F)ccc23)CC1)c1cccc2ccccc12 [compound 826778] | – | 8.56 | –
64 | O=C(NCCCCCN1CCN(c2csc3cc(F)ccc23)CC1)c1ccc2ccccc2c1 [compound 826779] | – | 9.01 | –
65 | O=C(NCCCCCN1CCN(c2csc3cc(F)ccc23)CC1)c1cccc(C(F)(F)F)c1 [compound 826780] | – | 8.35 | –
66 | Cc1ccccc1C(=O)NCCCCCN1CCN(c2csc3cc(F)ccc23)CC1 [compound 826781] | – | 8.00 | –
67 | O=C(NCCCCCN1CCN(c2csc3cc(F)ccc23)CC1)c1cccc(F)c1 [compound 826782] | – | 8.34 | –
68 | O=C(NCCCCCN1CCN(c2csc3cc(F)ccc23)CC1)c1cc2ccccc2s1 [compound 826783] | – | 8.57 | –

Reference: patent US7550469B2, “Heterocyclic amide derivatives and their use as dopamine D3 receptor ligands” (Aventis Pharmaceuticals Inc., priority 2001, dated 2009)
